Assay results as given in paper PMC8464955, “Prediction of Drug–Drug Interaction Potential of Tegoprazan Using Physiologically Based Pharmacokinetic Modeling and Simulation” (Pharmaceutics, 2021).
Like-named read-outs stand apart in the source and are kept apart here.

Assays:
[1] = PBPK model (SimCYP) prediction of tegoprazan PK; parameters: species or system human; conditions: estimated from clinical data, single dose 50 mg
Excerpt: A PBPK model of tegoprazan was built and verified by both the bottom-up approach using in vitro data for maintaining a mechanistic PBPK structure and the top-down approach using clinical PK results for maintaining a descriptive structure (Figure 1). The initial PBPK model of tegoprazan was constructed using physicochemical properties (e.g., molecular weight, log P, pKa), in vitro data (e.g., permeability, intrinsic clearance), and in vivo data (e.g., renal clearance) provided by HK inno.N Corp. (Seoul, Korea). The commercially available software SimCYP simulator v19 (SimCYP Limited, Certara, Sheffield, UK) was used to build the PBPK model and to generate the PK simulations. The PBPK-model-predicted PK profiles and parameters of tegoprazan were compared with the observed PK profiles and parameters from previously conducted clinical studies (Supplementary Table S1). The specific model configuration related to absorption, distribution, and elimination is described below.
The advanced dissolution, absorption, and metabolism model was used. The unbound fraction of the drug in enterocytes (fuGut) and the human jejunum effective permeability (Peff,man) were predicted because these values were not routinely measured (Table 1). […]
The elimination of the PBPK model consisted of enzyme kinetic and renal clearance (Table 1). Intrinsic clearances (CLint) of tegoprazan by various CYPs were determined by an in vitro study that measured the fraction of CLint inhibited by adding the inhibitors of CYP1A2, CYP2C9, CYP2C19, CYP2D6, and CYP3A to human liver microsomes (in-house data). […]
The PBPK model of tegoprazan as a single agent was verified using data from clinical studies of single- and multiple-dose administration of different dosages of tegoprazan. To verify the PK predictability of the PBPK model, the model-predicted PK profiles and parameters were compared with the observed PK profiles and parameters measured in clinical studies. […]

[2] = cited from earlier work; for AUCτ Obs. / Cmax Obs. / AUCinf Obs.: mean; for Tmax Obs.: median
[3] = cited from earlier work
[4] = test system: gastric H^+/K^+-ATPase; parameters: method as in PMID 31437865; conditions: from 50 mg to 400 mg; cited from earlier work
[5] = Clinical DDI studies of tegoprazan with clarithromycin or clarithromycin/amoxicillin (observed); format: in vivo, human
Description: (§1) The established PBPK model was verified by applying the predicted values to the clinical PK data from various phase 1 studies conducted with healthy male adults (Supplementary Table S2). Brief information about the clinical studies follows: study 1 (single-dose PK study), a single dose of tegoprazan 25 mg and 50 mg was orally administered; study 2 (food effect study), a single dose of tegoprazan 50 mg was orally administered in both fasted and fed states; study 3 (bioequivalence study of two formulations), a single dose of two different formulations with tegoprazan 100 mg was orally administered; study 4 (multiple-dose PK study), multiple doses of tegoprazan 50 mg and 100 mg were orally administered once daily for 7 days; study 5 (DDI study with clarithromycin), multiple doses of tegoprazan 200 mg were orally administered once daily with or without multiple doses of clarithromycin 500 mg twice daily for 5 days; and study 6 (DDI study with clarithromycin and amoxicillin), multiple doses of tegoprazan 100 mg were orally administered twice daily with or without multiple doses of clarithromycin/amoxicillin 500/1000 mg twice daily for 5 days or 7 days.
After refining and verifying the PBPK model of tegoprazan as a single agent, the DDI between tegoprazan and clarithromycin was finally verified using data from DDI clinical studies. To verify the predictability of the DDI estimated by the PBPK model of tegoprazan, the model-predicted PK profiles, parameters, and fold-increase of parameters were compared with the observed PK data measured in clinical studies (i.e., studies 5 and 6). In the case of study 6, the observed data were generated under the condition of triple administration of tegoprazan, clarithromycin, and amoxicillin. […] When simulating the DDI between tegoprazan and clarithromycin, the PBPK model of clarithromycin available in the SimCYP compound file was used.

[6] = Phase 1 clinical PK studies of tegoprazan alone in healthy male adults (observed); format: in vivo; conditions: human, urine and plasma, single oral dose 100 mg, read-out: CLR (renal clearance) (converted)
Description: as §1

[7] = Blood:plasma partition ratio and fraction unbound in plasma, experimental data; format: in vitro ADME
[8] = multiple oral doses 50 mg once daily for 7 days, ref NCT03009760
[9] = multiple oral doses 100 mg once daily for 7 days, ref NCT03009760
[10] = single oral dose 25 mg, ref NCT03530228
[11] = single oral dose 50 mg, NCT03530228
[12] = tegoprazan 100 mg BID with vs without clarithromycin 500 mg BID + amoxicillin 1000 mg BID
[13] = tegoprazan 200 mg QD with vs without clarithromycin 500 mg BID

- Q (blood flow between central compartment and SAC) [1]: 24.4 L/h
- VSAC (volume of the single adjusted compartment) [1]: 0.66 L/kg
- Kp ([1]; male, human, oral, read-out: Kp scalar): 0.33
- Fold Increase Obs. AUCR [5, 12]: 2.69
- Fold Increase Obs. CmaxR [5, 12]: 2.24
- Fold Increase Obs. AUCR [5, 13]: 2.57
- Fold Increase Obs. CmaxR [5, 13]: 1.66
- CL renal [6]: 21.8 mL/min
- blood plasma ratio ([7]; blood and plasma, read-out: B/P (blood:plasma partition ratio)): 0.868
- fraction unbound ([7]; plasma, read-out: fu (fraction unbound in plasma)): 0.124
Structure (SMILES): Cc1nc2cc(C(=O)N(C)C)cc(O[C@H]3CCOc4cc(F)cc(F)c43)c2[nH]1 [tegoprazan]
- AUCτ Obs. [2, 8]: 2.9549 µg·h/mL
- Cmax Obs. [2, 8]: 842.8 µg/L
- Tmax Obs. [2, 8]: 1.00 h
- AUCτ Obs. [2, 9]: 4.7684 µg·h/mL
- Cmax Obs. [2, 9]: 1149.7 µg/L
- Tmax Obs. [2, 9]: 1.25 h
- AUCinf Obs. [2, 10]: 1340.0 µg·h/L
- Cmax Obs. [2, 10]: 335.6 µg/L
- Tmax Obs. [2, 10]: 0.75 h
- AUCinf Obs. [2, 11]: 2903.0 µg·h/L
- Cmax Obs. [2, 11]: 759.1 µg/L
- Tmax Obs. [2, 11]: 1.00 h
- AUCinf Obs. ([2]; single oral dose 100 mg): 5998.1 µg·h/L
- Cmax Obs. ([2]; single oral dose 100 mg): 1434.5 µg/L
- Tmax Obs. ([2]; single oral dose 100 mg): 1.00 h
- apparent clearance [3]: approximately 17.6 L/h
- mean half-life [3]: 3.7 to 6.2 h
- volume of distribution [3]: ~107.9 L
- safety and tolerability ([3]; healthy adults, up to 400 mg single dose and 200 mg multiple doses): safe and tolerable
- increase of systemic exposure with dose ([3]; phase 1 clinical study, healthy adults): dose proportional
- Cmax when administered with food ([3]; previous studies): decreased
- time to reach Cmax when administered with food ([3]; previous studies): delayed
- magnitude of acid suppression [4]: increases in a dose-dependent manner
